The supplement of paper PMC11061612

Legend:
Experiment in all cases: combination Emax (second highest fraction inhibited in the dose matrix, 72 h); higher = more inhibition; extreme values may be limits of the assay
Mewo (Melanoma) = system: Mewo (Melanoma)
In short: (§1)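 Cell lines grown in DMEM/F12 or RPMI with 10% FBS were plated in 1536-well plates and held 24 hours at 37°C, 5% CO2 before 72 hours of exposure to two-drug dose matrices, with DMSO typically at 0.2%. CellTiter-Glo 2.0 luminescence gave viability, which was converted to inhibition. Vehicle wells were set to 0 and blank wells to 1. Combination Emax is the second-highest inhibition in the matrix, and Bliss excess is the observed combination effect minus the expected EA + EB − EA·EB, where EA and EB are the single-agent effects.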

[1] = system: NCI-H747 (Colorectal Carcinoma)
In short: as §1

[2] = system: 8305C (Thyroid Gland Carcinoma)
In short: as §1

[3] = system: CTB-1 (B-Cell Non-Hodgkin's Lymphoma)
In short: as §1

[4] = system: LU-139 (Small Cell Lung Carcinoma)
In short: as §1

[5] = system: OVCAR-8 (Ovarian Carcinoma)
In short: as §1

[6] = system: KARPAS-231 (B-Cell Non-Hodgkin's Lymphoma)
In short: as §1

NCI-H2795 (Mesothelioma) = system: NCI-H2795 (Mesothelioma)
In short: as §1

[7] = system: RT-112 (Bladder Carcinoma)
In short: as §1

[8] = system: K5 (Thyroid Gland Carcinoma)
In short: as §1

[9] = system: Hs-633T (Other Solid Carcinomas)
In short: as §1

[10] = system: HO-1-u-1 (Oral Cavity Carcinoma)
In short: as §1

[11] = system: LB771-HNC (Head and Neck Carcinoma)
In short: as §1

[12] = system: MHH-PREB-1 (B-Cell Non-Hodgkin's Lymphoma)
In short: as §1

[13] = system: HDLM-2 (Hodgkin's Lymphoma)
In short: as §1

[14] = system: RPMI-6666 (Non-Cancerous)
In short: as §1

[15] = system: LoVo (Colorectal Carcinoma)
In short: as §1

[16] = system: SW1271 (Small Cell Lung Carcinoma)
In short: as §1

[17] = system: NCI-H69 (Small Cell Lung Carcinoma)
In short: as §1

[18] = system: SU-DHL-6 (B-Cell Non-Hodgkin's Lymphoma)
In short: as §1

With `CC1(C)CCC(CN2CCN(c3ccc(C(=O)NS(=O)(=O)c4ccc(NCC5CCOCC5)c([N+](=O)[O-])c4)c(Oc4cnc5[nH]ccc5c4)c3)CC2)=C(c2ccc(Cl)cc2)C1` [Venetoclax] + C[C@@H]1COCCN1C2=NC(=NC(=C2)C3(CC3)[S@](=N)(=O)C)C4=C5C=CNC5=NC=C4 [AZD6738] (first compound max 1 µM, 7x7, partner max 10 µM) the “combination Emax” value (Mewo (Melanoma)) was 0.556, the “combination Emax” value [1] was 0.387 and the “combination Emax” value [2] was 0.681. The “combination Emax” value [3] was 0.836, the “combination Emax” value [4] was 0.636 and the “combination Emax” value [5] was 0.712. For the same compound, the “combination Emax” value [6] was 1, the “combination Emax” value (NCI-H2795 (Mesothelioma)) was 0.622 and the “combination Emax” value [7] was 0.842. For the same compound, the “combination Emax” value [8] was 0.616, the “combination Emax” value [9] was 0.763 and the “combination Emax” value [10] was 0.853. For the same compound, the “combination Emax” value [11] was 0.474, the “combination Emax” value [12] was 0.795 and the “combination Emax” value [13] was 0.683. For the same compound, the “combination Emax” value [14] was 0.971, the “combination Emax” value [15] was 0.767 and the “combination Emax” value [16] was 0.612. For the same compound, the “combination Emax” value [17] was 0.618 and the “combination Emax” value [18] was 0.92.
With `CC1(C)CCC(CN2CCN(c3ccc(C(=O)NS(=O)(=O)c4ccc(NCC5CCOCC5)c([N+](=O)[O-])c4)c(Oc4cnc5[nH]ccc5c4)c3)CC2)=C(c2ccc(Cl)cc2)C1` [Venetoclax] + C[C@@H](Nc1cc(F)cc(F)c1)c1cc(C(=O)N(C)C)cc2c(=O)cc(N3CCOCC3)oc12 [AZD8186] (first compound max 1 µM, 7x7, partner max 3 µM) the “combination Emax” value (Mewo (Melanoma)) was 0.434, the “combination Emax” value [1] was 0.344 and the “combination Emax” value [2] was 0.441. For the same compound, the “combination Emax” value [3] was 0.288, the “combination Emax” value [4] was 0.279 and the “combination Emax” value [5] was 0.139. For the same compound, the “combination Emax” value [6] was 0.792, the “combination Emax” value (NCI-H2795 (Mesothelioma)) was 0.441 and the “combination Emax” value [7] was 0.472. The “combination Emax” value [8] was 0.735, the “combination Emax” value [9] was 0.186 and the “combination Emax” value [10] was 0.267. For the same compound, the “combination Emax” value [11] was 0.283, the “combination Emax” value [12] was 0.21 and the “combination Emax” value [13] was 0.436. For the same compound, the “combination Emax” value [14] was 0.988, the “combination Emax” value [15] was 0.494 and the “combination Emax” value [16] was 0.151. The “combination Emax” value [17] was 0.697 and the “combination Emax” value [18] was 1.
`CC1(C)CCC(CN2CCN(c3ccc(C(=O)NS(=O)(=O)c4ccc(NCC5CCOCC5)c([N+](=O)[O-])c4)c(Oc4cnc5[nH]ccc5c4)c3)CC2)=C(c2ccc(Cl)cc2)C1` [Venetoclax] + Cc1cc2ncnn2cc1Nc1ncc2c(n1)n(C1CCOCC1)c(=O)n2C [AZD7648] (first compound max 1 µM, 7x7, partner max 10 µM) was tested, and the “combination Emax” value (Mewo (Melanoma)) was 0.509, the “combination Emax” value [1] was 0.414 and the “combination Emax” value [2] was 0.385. For the same compound, the “combination Emax” value [3] was 0.358, the “combination Emax” value [4] was 0.439 and the “combination Emax” value [5] was 0.229. For the same compound, the “combination Emax” value [6] was 0.808, the “combination Emax” value (NCI-H2795 (Mesothelioma)) was 0.471 and the “combination Emax” value [7] was 0.257. For the same compound, the “combination Emax” value [8] was 0.394, the “combination Emax” value [9] was 0.188 and the “combination Emax” value [10] was 0.305. For the same compound, the “combination Emax” value [11] was 0.271, the “combination Emax” value [12] was 0.178 and the “combination Emax” value [13] was 0.431. For the same compound, the “combination Emax” value [14] was 0.959, the “combination Emax” value [15] was 0.443 and the “combination Emax” value [16] was 0.202. For the same compound, the “combination Emax” value [17] was 0.657 and the “combination Emax” value [18] was 0.853.
In the case of `CC1(C)CCC(CN2CCN(c3ccc(C(=O)NS(=O)(=O)c4ccc(NCC5CCOCC5)c([N+](=O)[O-])c4)c(Oc4cnc5[nH]ccc5c4)c3)CC2)=C(c2ccc(Cl)cc2)C1` [Venetoclax] + Cn1cnc2c(F)c(Nc3ccc(Br)cc3Cl)c(C(=O)NOCCO)cc21 [Selumetinib] (first compound max 1 µM, 7x7, partner max 3 µM), the “combination Emax” value (Mewo (Melanoma)) was 0.528, the “combination Emax” value [1] was 0.717 and the “combination Emax” value [2] was 0.397. For the same compound, the “combination Emax” value [3] was 0.105, the “combination Emax” value [4] was 0.307 and the “combination Emax” value [5] was 0.153. The “combination Emax” value [6] was 0.812, the “combination Emax” value (NCI-H2795 (Mesothelioma)) was 0.562 and the “combination Emax” value [7] was 0.304. For the same compound, the “combination Emax” value [8] was 0.742, the “combination Emax” value [9] was 0.228 and the “combination Emax” value [10] was 0.286. For the same compound, the “combination Emax” value [11] was 0.132, the “combination Emax” value [12] was 0.147 and the “combination Emax” value [13] was 0.296. For the same compound, the “combination Emax” value [14] was 0.959, the “combination Emax” value [15] was 0.374 and the “combination Emax” value [16] was 0.432. The “combination Emax” value [17] was 0.302 and the “combination Emax” value [18] was 0.88.
